# Data published in US9907737B2, “Composition comprising ferulic acid ethyl ester and aryl alkanol” (L'AIR LIQUIDE, SOCIETE ANONYME POUR L'ETUDE ET …, priority 2013, dated 2018).
# Marks after values point to notes of the source that are not given here.
# Assays:
# [1] = Antimicrobial effect (preliminary work, general statements); conditions: preliminary work / general statement
# [2] = test system: A. brasiliensis ATCC: 16404; test: Bacterial count reduction test (method 1), A. brasiliensis; format: cell-based, Aspergillus brasiliensis
# Method: (§1) Method 1: Bacterial Count Reduction Test
# (§2) The aim of this bacterial count reduction test is to determine suitable preservatives and reaction times for samples injected in the laboratory.
# (§3) Staphylococcus aureus, Escherichia coli or Pseudomonas aeruginosa, Candida albicans, Aspergillus brasiliensis
# A 7 to 14 days old Aspergillus brasiliensis culture on SA agar (25° C.±1° C.) is washed with 5 ml physiological NaCl, filtered by a glass funnel with glass wool and filled with physiological NaCl to 100 ml. The titre of the Aspergillus brasiliensis suspension is about 10^7 CFU/ml.
# (§4) The titres of the respectively produced test organism suspensions are determined by means of a dilution series in physiological NaCl and recorded.
# (§5) The samples are displaced with different concentrations of suitable preservatives. For each test bacterium a dilution series is required. The samples are injected individually with the respective test organism suspension and stirred well:
# (§6) 25 g samples=0.1 ml bacterial suspension
# (§7) 50 g samples=0.2 ml bacterial suspension.
# (§8) After the indicated reaction times the samples are firstly stirred homogenously with a sterile glass rod and then spread onto CSA or SA agar. The bacteria samples are spread onto CSA and incubated for 48 hours at 37° C. The mould and yeast samples are spread onto SA agar and incubated for 48 hours at 37° C. (Candida albicans) and at 25° C. (Aspergillus brasiliensis).
# [3] = test system: C. albicans ATCC: 10231; test: Bacterial count reduction test (method 1), C. albicans; format: cell-based, Candida albicans
# Method: as §1, §2, §3
# A 4 day old Candida albicans culture on SA-agar (II subculture) is washed with 5 ml physiological NaCl and adjusted according to a barium sulphate standard (cf. DVG Guidelines). The titer of the Candida albicans suspension is 10^8 CFU/ml.
# as §4, §5, §6, §7, §8
# [4] = test system: S. aureus ATCC: 6538; test: Bacterial count reduction test (method 1), S. aureus; format: cell-based, Staphylococcus aureus
# Method: as §1, §2, §3
# (§9) From a 24-hour CS-angular agar culture (I subculture) of Staphylococcus aureus/Escherichia coli 24-hour CSL-cultures (II subculture) are created. The incubation is carried out at 37° C. The titer of the bacterial suspension is about 10^9 CFU/ml.
# as §4, §5, §6, §7, §8
# [5] = test system: E. coli ATCC: 11229; test: Bacterial count reduction test (method 1), E. coli; format: cell-based, Escherichia coli; conditions: o/w cream, initial bacterial count 1.3 × 10^9
# Method: as §1, §2, §3, §9, §4, §5, §6, §7, §8
# [6] = Water solubility (statement); format: physicochemical
# [7] = test system: P. aeruginosa ATCC: 9027; test: Bacterial count reduction test (method 1), P. aeruginosa; format: cell-based, Pseudomonas aeruginosa; conditions: o/w-Lotion, initial bacterial count 1.2 × 10^9
# Method: as §1, §2, §3, §4, §5, §6, §7, §8
# [8] = o/w cream, initial bacterial count 1.5 × 10^7
# [9] = o/w cream, initial bacterial count 4.1 × 10^8
# [10] = o/w cream, initial bacterial count 1 × 10^9
# [11] = o/w-Lotion, initial bacterial count 7.7 × 10^7
# [12] = o/w-Lotion, initial bacterial count 5.4 × 10^8
# [13] = o/w-Lotion, initial bacterial count 2.2 × 10^9
Compound,"Antimicrobial effect, in words [1]","Growth of A. brasiliensis ATCC: 16404 after 24 hours [2, 8]","Growth of A. brasiliensis ATCC: 16404 after 72 hours [2, 8]","Growth of A. brasiliensis ATCC: 16404 after 168 hours [2, 8]","Growth of C. albicans ATCC: 10231 after 24 hours [3, 9]","Growth of C. albicans ATCC: 10231 after 72 hours [3, 9]","Growth of C. albicans ATCC: 10231 after 168 hours [3, 9]","Growth of S. aureus ATCC: 6538 after 24 hours [4, 10]","Growth of S. aureus ATCC: 6538 after 72 hours [4, 10]","Growth of S. aureus ATCC: 6538 after 168 hours [4, 10]",Growth of E. coli ATCC: 11229 after 24 hours [5],"Growth of A. brasiliensis ATCC: 16404 after 336 hours [2, 8]","Growth of A. brasiliensis ATCC: 16404 after 24 hours [2, 11]","Growth of A. brasiliensis ATCC: 16404 after 72 hours [2, 11]","Growth of A. brasiliensis ATCC: 16404 after 168 hours [2, 11]","Growth of A. brasiliensis ATCC: 16404 after 336 hours [2, 11]",Growth of P. aeruginosa ATCC: 9027 after 24 hours [7],Growth of P. aeruginosa ATCC: 9027 after 72 hours [7],Growth of P. aeruginosa ATCC: 9027 after 168 hours [7],Growth of P. aeruginosa ATCC: 9027 after 336 hours [7],other results
"OCCCc1ccccc1 [0.75% 3-phenyl-propanol-1, 3-phenyl-1-propanol]",good anti-microbial effect,++++ (Massive growth About 10^5),+++ (Heavy growth About 10^4),+ (Slight growth About 10^2),++++ (Massive growth About 10^5),++++ (Massive growth About 10^5),+ (Slight growth About 10^2),++++ (Massive growth About 10^5),++++ (Massive growth About 10^5),+++ (Heavy growth About 10^4),++ (Moderate growth About 10^3),–,–,–,–,–,–,–,–,–,–
"CCOC(=O)/C=C/c1ccc(O)c(OC)c1 [0.1% ferulic acid-ethyl ester, ferulic acid ethyl ester]",much weaker antimicrobial effect than ferulic acid itself,++++ (Massive growth About 10^5),++++ (Massive growth About 10^5),++++ (Massive growth About 10^5),R (Surface covered About 10^6),R (Surface covered About 10^6),R (Surface covered About 10^6),++++ (Massive growth About 10^5),R (Surface covered About 10^6),R (Surface covered About 10^6),R (Surface covered About 10^6),+++ (Heavy growth About 10^4),++ (Moderate growth About 10^3),+++ (Heavy growth About 10^4),+++ (Heavy growth About 10^4),++++ (Massive growth About 10^5),++++ (Massive growth About 10^5),++++ (Massive growth About 10^5),++++ (Massive growth About 10^5),++++ (Massive growth About 10^5),"Water solubility, in words [6]: poor water solubility; Growth of C. albicans ATCC: 10231 after 336 hours [3, 9]: R (Surface covered About 10^6); Growth of C. albicans ATCC: 10231 after 24 hours [3, 12]: ++++ (Massive growth About 10^5); Growth of C. albicans ATCC: 10231 after 72 hours [3, 12]: ++++ (Massive growth About 10^5); Growth of C. albicans ATCC: 10231 after 168 hours [3, 12]: ++++ (Massive growth About 10^5); Growth of C. albicans ATCC: 10231 after 336 hours [3, 12]: ++++ (Massive growth About 10^5); Growth of S. aureus ATCC: 6538 after 336 hours [4, 10]: ++++ (Massive growth About 10^5); Growth of S. aureus ATCC: 6538 after 24 hours [4, 13]: ++++ (Massive growth About 10^5); Growth of S. aureus ATCC: 6538 after 72 hours [4, 13]: ++++ (Massive growth About 10^5); Growth of S. aureus ATCC: 6538 after 168 hours [4, 13]: +++ (Heavy growth About 10^4); Growth of S. aureus ATCC: 6538 after 336 hours [4, 13]: +++ (Heavy growth About 10^4); Growth of E. coli ATCC: 11229 after 72 hours [5]: R (Surface covered About 10^6); Growth of E. coli ATCC: 11229 after 168 hours [5]: ++++ (Massive growth About 10^5); Growth of E. coli ATCC: 11229 after 336 hours [5]: R (Surface covered About 10^6)"
"CCCCC(CC)COC(=O)/C=C/c1ccc(O)c(OC)c1 (centres unmarked) [0.1% ferulic acid-2-ethylhexylester, ferulic acid (2-ethyl hexyl) ester]",–,R (Surface covered About 10^6),++++ (Massive growth About 10^5),++++ (Massive growth About 10^5),++++ (Massive growth About 10^5),++++ (Massive growth About 10^5),++++ (Massive growth About 10^5),++++ (Massive growth About 10^5),++++ (Massive growth About 10^5),++++ (Massive growth About 10^5),R (Surface covered About 10^6),++++ (Massive growth About 10^5),++++ (Massive growth About 10^5),++++ (Massive growth About 10^5),++++ (Massive growth About 10^5),++++ (Massive growth About 10^5),+++ (Heavy growth About 10^4),++++ (Massive growth About 10^5),++++ (Massive growth About 10^5),++++ (Massive growth About 10^5),"Growth of C. albicans ATCC: 10231 after 336 hours [3, 9]: ++++ (Massive growth About 10^5); Growth of C. albicans ATCC: 10231 after 24 hours [3, 12]: R (Surface covered About 10^6); Growth of C. albicans ATCC: 10231 after 72 hours [3, 12]: R (Surface covered About 10^6); Growth of C. albicans ATCC: 10231 after 168 hours [3, 12]: ++++ (Massive growth About 10^5); Growth of C. albicans ATCC: 10231 after 336 hours [3, 12]: ++++ (Massive growth About 10^5); Growth of S. aureus ATCC: 6538 after 336 hours [4, 10]: +++ (Heavy growth About 10^4); Growth of S. aureus ATCC: 6538 after 24 hours [4, 13]: R (Surface covered About 10^6); Growth of S. aureus ATCC: 6538 after 72 hours [4, 13]: ++++ (Massive growth About 10^5); Growth of S. aureus ATCC: 6538 after 168 hours [4, 13]: ++++ (Massive growth About 10^5); Growth of S. aureus ATCC: 6538 after 336 hours [4, 13]: ++++ (Massive growth About 10^5); Growth of E. coli ATCC: 11229 after 72 hours [5]: ++++ (Massive growth About 10^5); Growth of E. coli ATCC: 11229 after 168 hours [5]: R (Surface covered About 10^6); Growth of E. coli ATCC: 11229 after 336 hours [5]: R (Surface covered About 10^6)"
